Activity calls are given as the source filed them.
Columns and labels:
Streptokinase A = target: T1, Streptokinase A (Streptococcus pyogenes serotype M1, UniProt P10520); assay: viability-normalized secreted streptokinase activity reduction – plasminogen activation absorbance, OD405, dose response (AID 1914); assay type: functional, Streptococcus pyogenes M1 GAS;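 note: secreted streptokinase activity via plasminogen activation per viability signal from cell pellet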
T1 sequence (P10520 whole entry): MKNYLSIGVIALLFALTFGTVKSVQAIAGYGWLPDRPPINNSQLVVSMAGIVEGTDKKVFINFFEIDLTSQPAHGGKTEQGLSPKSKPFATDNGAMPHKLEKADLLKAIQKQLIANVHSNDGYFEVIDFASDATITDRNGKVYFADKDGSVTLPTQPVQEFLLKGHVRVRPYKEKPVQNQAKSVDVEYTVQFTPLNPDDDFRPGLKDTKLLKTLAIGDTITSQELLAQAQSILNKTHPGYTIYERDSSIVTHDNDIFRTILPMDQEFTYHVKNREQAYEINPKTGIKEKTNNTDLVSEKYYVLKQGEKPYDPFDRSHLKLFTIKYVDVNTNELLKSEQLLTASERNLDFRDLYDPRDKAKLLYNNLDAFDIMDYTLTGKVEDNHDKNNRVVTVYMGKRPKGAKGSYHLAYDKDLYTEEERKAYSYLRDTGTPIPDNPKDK

[1] = Luminescence Cell-Based Dose Retest to Confirm Inhibitors of Cancer Stem Cells. [Related pubchem assays (depositor defined):AID2717, AID2721]; assay type: functional; conditions: Homo sapiens
Streptococcus [2] = assay: GAS UMAA2166 growth inhibition – luminescence, BacTiterGlo, counter-screen for streptokinase expression inhibitor project, dose response (AID 1915); assay type: functional, organism-based;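 note: potency for reduction of bacterial viability or growth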
Streptococcus [3] = assay: Luminescence Microorganism-Based Dose Response Follow up to Identify Compounds Cytotoxic to Streptococcus. [Related pubchem assays: 1677 (Project Summary), 1915, 1914, 1902 (Retest at Dose), 1900 (Counter Screen), 1662 (Primary HTS)]; assay type: functional, organism-based
[4] = viability loss of HMLE_sh_eGFP cells – cell-based, luminescence, counter-screen for HMLE_sh_ECad selective toxicity project, dose response (AID 463074); assay type: functional, Homo sapiens;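 note: HMLE human mammary epithelial cells expressing control shRNA against eGFP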
[5] = system: Streptococcus sp. 'group A'; assay: Streptococcus pyogenes SK(-)GAS viability under kanamycin – luminescence, BacTiterGlo, confirmation, counter-screen for streptokinase expression inhibitor project, dose response (AID 1900); assay type: functional, organism-based
Escherichia coli = assay: microbe, parasite or virus in culture
[6] = target: Dual specificity protein phosphatase 6 (Rattus norvegicus, UniProt Q64346); assay type: functional;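 note: confirmatory in vitro dose-response testing of MKP-3 inhibition; recombinant His-tagged MKP-3 made in E. coli BL21 with OMFP substrate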
Chain of Dual specificity protein phosphatase 6 (Q64346 whole entry): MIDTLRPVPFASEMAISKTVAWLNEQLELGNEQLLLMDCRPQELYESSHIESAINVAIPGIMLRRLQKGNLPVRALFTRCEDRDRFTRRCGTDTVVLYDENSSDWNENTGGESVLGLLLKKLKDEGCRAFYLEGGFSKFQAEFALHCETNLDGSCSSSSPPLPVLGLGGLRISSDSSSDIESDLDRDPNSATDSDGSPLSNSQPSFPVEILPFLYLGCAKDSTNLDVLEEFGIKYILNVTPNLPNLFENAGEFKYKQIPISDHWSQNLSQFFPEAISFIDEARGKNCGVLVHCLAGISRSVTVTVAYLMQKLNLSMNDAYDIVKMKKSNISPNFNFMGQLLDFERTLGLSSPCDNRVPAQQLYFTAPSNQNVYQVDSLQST

[7] = target: Tyrosine-protein phosphatase non-receptor type 12 (Homo sapiens, UniProt Q05209); assay: SAR Selectivity Analysis of small molecule inhibitors of PEST using pCAP in a fluorescence assay. [Related pubchem assays (depositor defined):AID1779, AID1784, AID2135]; assay type: functional
Chain of Tyrosine-protein phosphatase non-receptor type 12 (Q05209 whole entry): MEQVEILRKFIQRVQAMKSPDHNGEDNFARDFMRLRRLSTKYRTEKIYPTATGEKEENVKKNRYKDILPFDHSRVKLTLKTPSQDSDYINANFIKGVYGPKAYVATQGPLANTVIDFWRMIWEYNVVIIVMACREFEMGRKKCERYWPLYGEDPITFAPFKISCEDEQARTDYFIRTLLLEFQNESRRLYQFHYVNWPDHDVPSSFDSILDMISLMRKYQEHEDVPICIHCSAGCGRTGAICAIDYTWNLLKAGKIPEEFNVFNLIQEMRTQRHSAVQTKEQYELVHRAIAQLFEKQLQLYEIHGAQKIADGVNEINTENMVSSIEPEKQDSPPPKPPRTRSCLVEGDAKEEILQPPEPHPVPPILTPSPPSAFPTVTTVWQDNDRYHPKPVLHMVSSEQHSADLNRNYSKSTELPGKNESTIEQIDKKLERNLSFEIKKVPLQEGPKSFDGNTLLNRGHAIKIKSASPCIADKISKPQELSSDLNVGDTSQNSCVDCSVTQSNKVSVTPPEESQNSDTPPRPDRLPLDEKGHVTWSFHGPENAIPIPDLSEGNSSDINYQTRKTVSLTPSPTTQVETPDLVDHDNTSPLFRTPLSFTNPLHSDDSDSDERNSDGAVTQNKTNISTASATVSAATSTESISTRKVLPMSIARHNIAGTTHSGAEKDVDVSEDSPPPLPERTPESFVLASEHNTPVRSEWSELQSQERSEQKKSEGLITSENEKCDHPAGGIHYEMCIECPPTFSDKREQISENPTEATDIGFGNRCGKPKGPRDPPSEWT

[8] = target: T2, Tyrosine-protein phosphatase non-receptor type 22 (Homo sapiens, UniProt Q9Y2R2); assay: SAR LYP1 Fluorescent Assay using OMFP substrate for In Vitro dose response studies - Set 3. [Related pubchem assays (depositor defined):AID1779, AID1784, AID2140, AID2686]; assay type: functional
T2 sequence (Q9Y2R2 whole entry): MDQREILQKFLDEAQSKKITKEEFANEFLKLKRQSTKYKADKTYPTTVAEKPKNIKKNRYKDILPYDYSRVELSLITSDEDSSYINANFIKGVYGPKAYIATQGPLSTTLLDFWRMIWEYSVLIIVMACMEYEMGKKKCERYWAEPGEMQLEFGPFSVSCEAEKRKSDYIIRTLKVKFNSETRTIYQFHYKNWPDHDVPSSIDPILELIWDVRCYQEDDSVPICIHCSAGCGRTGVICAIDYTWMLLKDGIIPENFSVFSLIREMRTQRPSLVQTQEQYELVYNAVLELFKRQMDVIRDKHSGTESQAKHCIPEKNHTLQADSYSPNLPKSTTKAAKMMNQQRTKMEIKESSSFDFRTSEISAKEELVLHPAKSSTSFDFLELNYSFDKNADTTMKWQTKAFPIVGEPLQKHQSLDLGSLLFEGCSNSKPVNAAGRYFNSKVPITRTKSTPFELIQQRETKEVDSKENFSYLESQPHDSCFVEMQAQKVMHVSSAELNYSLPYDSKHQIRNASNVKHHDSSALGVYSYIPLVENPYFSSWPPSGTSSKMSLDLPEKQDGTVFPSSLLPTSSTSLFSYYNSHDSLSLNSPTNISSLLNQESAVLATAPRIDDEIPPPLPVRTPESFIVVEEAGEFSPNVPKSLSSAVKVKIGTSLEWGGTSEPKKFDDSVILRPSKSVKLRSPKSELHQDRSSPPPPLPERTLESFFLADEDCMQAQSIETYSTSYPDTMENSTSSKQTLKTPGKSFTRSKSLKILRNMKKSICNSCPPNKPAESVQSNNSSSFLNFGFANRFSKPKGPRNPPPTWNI

[9] = target: T2, Tyrosine-protein phosphatase non-receptor type 22; assay: inhibition of lymphoid tyrosine phosphatase LYP – biochemical, pCAP fluorogenic substrate, fluorescence, set 3, SAR follow-up (AID 449727); assay type: functional
[10] = target: T3, Tyrosine-protein phosphatase non-receptor type 7 (Homo sapiens, UniProt P35236); assay: redox-active compounds inhibiting HePTP phosphatase – biochemical, fluorescence, mechanism study (AID 2068); assay type: functional
T3 sequence (P35236 whole entry): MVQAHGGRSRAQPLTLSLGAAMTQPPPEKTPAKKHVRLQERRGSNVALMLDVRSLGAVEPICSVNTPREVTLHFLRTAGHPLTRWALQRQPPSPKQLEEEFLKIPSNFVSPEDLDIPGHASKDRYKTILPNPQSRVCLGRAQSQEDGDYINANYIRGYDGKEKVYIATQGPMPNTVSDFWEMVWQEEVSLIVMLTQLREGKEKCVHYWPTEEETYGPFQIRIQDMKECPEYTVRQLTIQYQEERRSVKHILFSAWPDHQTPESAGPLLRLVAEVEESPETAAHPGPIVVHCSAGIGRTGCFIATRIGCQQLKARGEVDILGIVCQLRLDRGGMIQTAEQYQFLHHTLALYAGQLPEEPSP

[11] = target: T3, Tyrosine-protein phosphatase non-receptor type 7; assay: inhibition of hematopoietic tyrosine phosphatase HePTP – biochemical, set 2, SAR follow-up (AID 449736); assay type: functional
[12] = target: T4, Short transient receptor potential channel 4 (Mus musculus, UniProt Q9QUQ5); assay: potency of mouse TRPC4 calcium flux blockers – cell-based, HEK293 TRPC4/mu-opioid, DAMGO stimulus, Fluo-4, dose response (AID 492994); assay type: functional
T4 sequence (Q9QUQ5 whole entry): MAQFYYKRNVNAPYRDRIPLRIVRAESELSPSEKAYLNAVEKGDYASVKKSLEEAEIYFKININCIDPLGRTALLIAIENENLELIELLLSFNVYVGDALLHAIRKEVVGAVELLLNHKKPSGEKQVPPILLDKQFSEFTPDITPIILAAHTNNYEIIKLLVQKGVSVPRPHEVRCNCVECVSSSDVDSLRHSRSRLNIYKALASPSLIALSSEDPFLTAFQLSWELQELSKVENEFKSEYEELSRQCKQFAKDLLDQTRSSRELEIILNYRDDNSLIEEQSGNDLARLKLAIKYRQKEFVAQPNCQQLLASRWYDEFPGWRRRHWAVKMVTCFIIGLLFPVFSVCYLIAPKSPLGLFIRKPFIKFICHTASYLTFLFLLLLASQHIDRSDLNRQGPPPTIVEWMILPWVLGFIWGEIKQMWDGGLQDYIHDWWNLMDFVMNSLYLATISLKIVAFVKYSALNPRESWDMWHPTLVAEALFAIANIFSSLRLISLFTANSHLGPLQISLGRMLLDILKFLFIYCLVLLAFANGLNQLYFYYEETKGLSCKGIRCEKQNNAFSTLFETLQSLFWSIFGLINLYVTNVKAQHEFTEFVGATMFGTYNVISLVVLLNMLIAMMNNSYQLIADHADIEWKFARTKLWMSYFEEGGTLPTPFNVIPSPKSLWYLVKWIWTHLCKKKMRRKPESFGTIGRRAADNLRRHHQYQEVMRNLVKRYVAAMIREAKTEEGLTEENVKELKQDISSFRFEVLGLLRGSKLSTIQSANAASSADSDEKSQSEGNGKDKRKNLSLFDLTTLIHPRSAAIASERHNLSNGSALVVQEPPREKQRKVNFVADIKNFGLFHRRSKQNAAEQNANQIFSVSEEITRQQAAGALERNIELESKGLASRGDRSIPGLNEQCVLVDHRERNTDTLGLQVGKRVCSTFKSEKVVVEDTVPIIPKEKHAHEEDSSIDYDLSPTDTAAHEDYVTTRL

[13] = target: T4, Short transient receptor potential channel 4; assay: SAR Analysis for the identification of selective inhibits of the transient receptor potential cation channel C4 (TRPC4): Automated Electrophysiology_2. [Related pubchem assays (depositor defined):AID2256]; assay type: functional

Q: Which results are given for `CC1CC(C)CN(c2ncc3c(n2)CC(c2ccccc2Cl)CC3=O)C1` (stereo unspecified)?
A: EC50 (Streptokinase A): 10.2 µM (active); AC50 [1]: 4.15 µM (active); EC50 (Streptococcus [2]): > 150 µM (not active); EC50 (Streptococcus [3]): > 500 µM (not active); AC50 [4]: 30.2 µM (active); EC50 [5]: 7.25 µM (active)

Q: For `COc1ccc(-c2cc([C@H]3[C@@H]4C=CCC[C@@]4(C)C(=O)N3Cc3ccccc3)ccc2F)cc1`, which AC50 [1] is on record?
A: 3.42 µM (active)

Q: And the AC50 (Escherichia coli)?
A: 121 µM (active)

Q: For `CC(C)(Oc1ccc2sc3ccccc3c2c1)C(=O)O`, which IC50 [6] is on record?
A: > 99 µM (inactive)

Q: What about the IC50 [7] of the same molecule?
A: 9.45 µM (active)

Q: And the IC50 [8]?
A: 77.5 µM (active)

Q: And the IC50 [9]?
A: 83.8 µM (active)

Q: What about the IC50 [10] of the same molecule?
A: 30.2 µM (active)

Q: And the IC50 [11]?
A: 0.45 µM (active)

Q: Which IC50 [12] does the source give for `Cc1cc(N2CCOc3ccccc32)nc2ccccc12` here?
A: 12 µM (active)

Q: What about the IC50 [13] of the same molecule?
A: 24.5 µM (active)

Source: ChEMBL document CHEMBL1201862, “PubChem BioAssay data set” (2004)
